Assay [1] concerns ticks of the genus Ixodes ricinus. In words: In-vivo comparison on dogs of anti-tick action following spray application. The note with it: Beagle dogs; for anti-tick activity in the course of 3 successive days (in words): single spray application. An excerpt:
In-vivo comparison on dogs in respect of the anti-tick action of 2-propyl-pentanoic acid-bis-(2-methoxyethyl)-amide according to the present invention with DEET (in the form of PARAPIC DOG® (a tick repellent containing DEET)) following spray application.
The following formulations of active ingredient are used in the test which follows: […]
Prior art composition of the Parapic anti-tick spray: • active substance: 15% N,N-Diethyl-3-methylbenzamide (DEET); 15% • ethylbutylacetylaminopropionate (EBMP), isopropanol, methacrylic acid copolymer, carbamide, fragrance (perfume).
Inventive composition of the 2-propyl-pentanoic acid-bis-(2-methoxyethyl )-amide spray: active substance: 2-propyl-pentanoic acid-bis-(2-methoxyethyl )-amide 4.5%; Pluronic F6® 2.0%; water 10.0%, isopropanol ad 100.0%.
The aim of the test is to make a comparison, under natural conditions, of the commercially available anti-vermin product Parapic Dog® with a typical representative of a compound of formula (I), namely 2-propyl-pentanoic acid-bis-(2-methoxyethyl)-amide. According to the packaging information one should reach with Parapic Dog® an 80% anti-tick protection over a period of 48 hours. The active ingredient of Parapic Dog® is DEET, which is the chemical substance N,N-Diethyl-3-methylbenzamide. Products based on the active ingredient DEET, such as Parapic Dog® are widely used against ticks on dogs and cats, and also on humans. Actually, the majority of the currently used anti-tick products is based on DEET, and the mostly used product in dogs is said Parapic Dog®.
Test Protocol: 12 Beagle dogs are divided into groups of 4. To distinguish them, each dog is given a numbered label. Group 1 is treated with a 4.5% 2-propyl-pentanoic acid-bis-(2-methoxy-ethyl)-amide spray (3645mg a.i./m^2). Group 2 is treated with Parapic Dog®-Spray ([…] DEET/3645 mg a.i./m^2). Group 3 remains untreated and serves as a control.
All twelve dogs are taken on 3 successive days to a wooded plot infected with ticks of the genus Ixodes ricinus and are left to run around there. They are free to move around there for 2 hours. An evaluation is made directly after returning from the wood. The two-hour walks are repeated on the next 2 days without the dogs being treated again, and the evaluation is again made directly after returning from the wood. This is effected by carefully searching the fur and the skin of each animal for ticks adhered thereto. The ticks are counted and compared with the number of ticks in the control group.

The test system of assay [2] is Amblyomma hebraeum or variegatum (nymphs). In words: Arena test in vitro against Amblyomma hebraeum or variegatum (nymphs). As to conditions: even up to a dilution of 3.2 μg/cm^2. As to the method:
(§1) This method is carried out in titre plates having 6 wells with a cross-section of 5 cm each, using a computer-supported video system. Each well of the titre plate is lined with a circular filter paper or another suitable carrier material. The substance of formula (I) to be tested is dissolved in methanol, acetonitrile or another suitable solvent, with ultrasound treatment and heating being employed for poorly-soluble substances. In an amount of 1 to 100 μg/cm^2, the dissolved test substance is placed in the centre of the filter paper on a quadrant or circular area of ca. 2.4 cm^2 radius. 4 of the 6 wells are filled with different test substances or with the same test substance in different dilutions (e.g. 1, 3.2, 5, 10 and 20 μg/cm^2) The 5th well is treated with DEET (N,N-diethyl-m-toluamide) as standard substance. The 6th well is filled with the pure solvent and serves as a control. […] In this way, neutral and repellent substances are determined. At the same time, the duration of activity of the test substance is determined and compared with that of the standard. […] This frequency is evaluated statistically and thus quantitatively by the Willcoxon method in a comparison with the control and with the standard. […]

The subject of assay [3] is parasite to be tested, e.g. ticks. In words: Arena test method for testing vermin-repellent substances. The note with it: 1 to 100 μg/cm^2 on filter paper; video evaluation versus control and DEET standard. As to the method: Arena Test Method for Testing Vermin-repellent Substances
This method is carried out in titre plates having 6 wells with a cross-section of 5 cm each, using a computer-supported video system. Each well of the titre plate is lined with a circular filter paper or another suitable carrier material. The substance of formula (I) to be tested is dissolved in methanol, acetonitrile or another suitable solvent, with ultrasound treatment and heating being employed for poorly-soluble substances. In an amount of 1 to 100 μg/cm^2, the dissolved test substance is placed in the centre of the filter paper on a quadrant or circular area of ca. 2.4 cm^2 radius. 4 of the 6 wells are filled with different test substances or with the same test substance in different dilutions (e.g. 1, 3.2, 5, 10 and 20 μg/cm^2) The 5th well is treated with DEET (N,N-diethyl-m-toluamide) as standard substance. The 6th well is filled with the pure solvent and serves as a control. […]
At intervals of 5 seconds, the video camera takes individual pictures of all 6 wells. […] In this way, neutral and repellent substances are determined. At the same time, the duration of activity of the test substance is determined and compared with that of the standard. […] This frequency is evaluated statistically and thus quantitatively by the Willcoxon method in a comparison with the control and with the standard. […]

Assay [4] deals with Rhipicephalus sanguineus (nymphs). Briefly: Arena test in vitro against Rhipicephalus sanguineus (nymphs). The note with it: even up to a dilution of 3.2 μg/cm^2. The protocol: as §1
The test system of assay [5] is Boophilus microplus Biarra (larvae). Briefly: Arena test in vitro against Boophilus microplus Biarra (larvae). As to conditions: even up to a dilution of 3.2 μg/cm^2. The protocol:
as §1

The next assay concerns vermin. As to conditions: volatilizes rather rapidly; cited from earlier work.

Turning to `CCCC(CCC)C(=O)N(CCOC)CCOC` [Compound no. 1.31, 2-propyl-pentanoic acid-bis-(2-methoxyethyl)-amide], the “anti-tick action after 1 day” value in assay [1] (single spray application 3645 mg a.i./m^2, 2 hour walk in tick-infested wood, versus untreated control, after 1 day) was 100%. The “anti-tick action after 2 days” value in assay [1] (single spray application 3645 mg a.i./m^2, 2 hour walk in tick-infested wood, versus untreated control, after 2 days) was 98%. The “anti-tick action after 3 days” value in assay [1] (single spray application 3645 mg a.i./m^2, 2 hour walk in tick-infested wood, versus untreated control, after 3 days) worked out at 79%. Moreover, the “anti-tick activity in the course of 3 successive days (in words)” value in assay [1] is listed as “very good results”. Moreover, the “long-term action against Amblyomma nymphs” value in assay [2] is given as “especially marked long-term action”. The “repellent activity in arena test” value in assay [3] was “particularly active”. Also, the “long-term action against Rhipicephalus sanguineus nymphs” value in assay [4] is given as “especially marked long-term action”. Besides, in assay [5], the “long-term action against Boophilus larvae” value was “especially marked long-term action”.
For the molecule `CCN(CC)C(=O)c1cccc(C)c1` [DEET, N,N-diethyl-m-toluamide, reference compound], in assay [1], the “anti-tick activity in the course of 3 successive days (in words)” value is on record as “drops abruptly after 2 days”. Further, the “time after which reapplication is needed” value in the assay with vermin is “ca. 2 hours”.

(Values after patent US7749526B2, “Vermin-repellant compositions and compounds” (Novartis AG, priority 2002, dated 2010).)
